Data taken from ChEMBL document CHEMBL1201862, “PubChem BioAssay data set” (2004).
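All cell lines were grown in 96-well plates and treated with compound for 48 hours. GI50: concentration for 50% inhibition of growth.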 Active and inactive are the calls of the source. Rule as the data show it: active = GI50 up to about 1.1 µM and inactive = higher.

Experiments:
Assay in all cases: inhibition of tumour cell growth, NCI panel, 48 h
A549 = system: A549
A498 = system: A498
HL-60 = system: HL-60
UACC-62 = system: UACC-62
OVCAR-8 = system: OVCAR-8
MCF7 = system: MCF7
MDA-MB-435 = system: MDA-MB-435
HCT-15 = system: HCT-15
NCI-H460 = system: NCI-H460
SR = system: SR
SNB-19 = system: SNB-19
CAKI-1 = system: CAKI-1
SN12C = system: SN12C
U-251 = system: U-251
786-0 = system: 786-0
TK-10 = system: TK-10
HCC 2998 = system: HCC 2998
SK-MEL-28 = system: SK-MEL-28
NCI-H23 = system: NCI-H23
M14 = system: M14

| Compound | GI50 (A549) | GI50 (A498) | GI50 (HL-60) | GI50 (UACC-62) | GI50 (OVCAR-8) | GI50 (MCF7) | GI50 (MDA-MB-435) | GI50 (HCT-15) [µM] | GI50 (NCI-H460) | GI50 (SR) | GI50 (SNB-19) | GI50 (CAKI-1) | GI50 (SN12C) | GI50 (U-251) | GI50 (786-0) | GI50 (TK-10) | GI50 (HCC 2998) | GI50 (SK-MEL-28) | GI50 (NCI-H23) | GI50 (M14) |
| --- | --- | --- | --- | --- | --- | --- | --- | --- | --- | --- | --- | --- | --- | --- | --- | --- | --- | --- | --- | --- |
| CO[C@@H]1C[C@H](OC(N)=O)[C@@H]2C=C[C@@H]3/C=C(C)/C=C/[C@@H](C)[C@H](/C(C)=C/[C@@H](C)NC(C)=O)OC(=O)/C=C/C=C(C)\C=C\[C@]3(C)[C@@H]2C1 [SUPERSTOLIDE B] | < 0.005 µM (active) | < 0.005 µM (active) | < 0.005 µM (active) | < 0.005 µM (active) | 0.00607 µM (active) | 0.00693 µM (active) | < 0.005 µM (active) | 0.00518 | < 0.005 µM (active) | < 0.005 µM (active) | 0.0306 µM (active) | < 0.005 µM (active) | < 0.005 µM (active) | < 0.005 µM (active) | < 0.005 µM (active) | 0.0718 µM (active) | < 0.005 µM (active) | < 0.005 µM (active) | < 0.005 µM (active) | < 0.005 µM (active) |
| COc1cc(C2C3=C(COC3=O)Oc3cc4c(cc32)OCO4)ccc1O (configuration not stated) | 0.41 µM (active) | 0.668 µM (active) | 0.182 µM (active) | 0.356 µM (active) | 0.69 µM (active) | 0.277 µM (active) | 0.0552 µM (active) | 0.476 | 0.308 µM (active) | 0.252 µM (active) | 0.333 µM (active) | 0.0445 µM (active) | 2.69 µM (inactive) | 0.467 µM (active) | 0.481 µM (active) | > 100 µM (inactive) | 0.893 µM (active) | 0.847 µM (active) | 0.65 µM (active) | 0.439 µM (active) |
| CCCC(=O)N1CCN(c2ccc3c(c2)OC(C)O3)CC1 (configuration not stated) | > 100 µM (inactive) | > 100 µM (inactive) | – | > 100 µM (inactive) | > 100 µM (inactive) | > 100 µM (inactive) | > 100 µM (inactive) | > 100 | > 100 µM (inactive) | > 100 µM (inactive) | > 100 µM (inactive) | > 100 µM (inactive) | > 100 µM (inactive) | > 100 µM (inactive) | > 100 µM (inactive) | > 100 µM (inactive) | > 100 µM (inactive) | > 100 µM (inactive) | > 100 µM (inactive) | > 100 µM (inactive) |
| Cc1nc(C(N)=S)sc1C(=O)C/C(=N/N)C(=O)Nc1cccc(Cl)c1C | > 100 µM (inactive) | > 100 µM (inactive) | > 100 µM (inactive) | > 100 µM (inactive) | > 100 µM (inactive) | > 100 µM (inactive) | > 100 µM (inactive) | > 100 | > 100 µM (inactive) | > 100 µM (inactive) | > 100 µM (inactive) | > 100 µM (inactive) | > 100 µM (inactive) | > 100 µM (inactive) | > 100 µM (inactive) | > 100 µM (inactive) | > 100 µM (inactive) | > 100 µM (inactive) | > 100 µM (inactive) | > 100 µM (inactive) |
| O=S(=O)(NC1OCCCC1I)c1ccccc1 (configuration not stated) | > 100 µM (inactive) | > 100 µM (inactive) | – | > 100 µM (inactive) | > 100 µM (inactive) | > 100 µM (inactive) | > 100 µM (inactive) | > 100 | > 100 µM (inactive) | > 100 µM (inactive) | > 100 µM (inactive) | > 100 µM (inactive) | > 100 µM (inactive) | > 100 µM (inactive) | > 100 µM (inactive) | > 100 µM (inactive) | > 100 µM (inactive) | > 100 µM (inactive) | > 100 µM (inactive) | – |
| CCCCCCCC(=O)OC[n+]1cccc(-c2c(COC(=O)NC(C)C)c(COC(=O)NC(C)C)c3n2CCC3)c1 | > 96.2 µM (inactive) | 35.3 µM (inactive) | 24.3 µM (inactive) | 38.1 µM (inactive) | 82 µM (inactive) | 45.6 µM (inactive) | > 100 µM (inactive) | > 100 | 46.1 µM (inactive) | 12.8 µM (inactive) | > 100 µM (inactive) | 18.9 µM (inactive) | 48 µM (inactive) | > 72.8 µM (inactive) | 40 µM (inactive) | > 100 µM (inactive) | > 100 µM (inactive) | > 100 µM (inactive) | 61.7 µM (inactive) | 98.2 µM (inactive) |
| CCOC(=O)C1(Cc2ccc3c(c2)CCC3)Cc2cc3c(cc2C1)CCC3 | 35.9 µM (inactive) | 37.5 µM (inactive) | > 100 µM (inactive) | 30.6 µM (inactive) | 42.5 µM (inactive) | 16.4 µM (inactive) | 35.7 µM (inactive) | 32 | 27.5 µM (inactive) | 23.9 µM (inactive) | 36.7 µM (inactive) | 45.7 µM (inactive) | 27.8 µM (inactive) | 32.3 µM (inactive) | 29.6 µM (inactive) | > 100 µM (inactive) | 22.6 µM (inactive) | 39.4 µM (inactive) | 35.7 µM (inactive) | 21.5 µM (inactive) |
| CCCCCCCN(CCCCCCC)CC(O)c1cc2ccccc2c2cc(Br)ccc12 (configuration not stated) | – | > 100 µM (inactive) | 39.2 µM (inactive) | 20.4 µM (inactive) | 30.3 µM (inactive) | 12.7 µM (inactive) | 33.1 µM (inactive) | 7.53 | 23.1 µM (inactive) | 22.6 µM (inactive) | 38.7 µM (inactive) | 47.6 µM (inactive) | 6.58 µM (inactive) | 18.3 µM (inactive) | 31.6 µM (inactive) | 47.6 µM (inactive) | 15.2 µM (inactive) | 36.6 µM (inactive) | 36 µM (inactive) | 22.6 µM (inactive) |
| COc1ccc(Nc2nc3ccc(C(F)(F)F)cc3nc2C(=O)O)cc1OC | – | 27.9 µM (inactive) | 29.9 µM (inactive) | 21.7 µM (inactive) | 23.2 µM (inactive) | 33.9 µM (inactive) | 32.7 µM (inactive) | 25.9 | 21.2 µM (inactive) | 18.9 µM (inactive) | 23.6 µM (inactive) | 39.5 µM (inactive) | 34.9 µM (inactive) | 27.4 µM (inactive) | 35 µM (inactive) | – | 18.7 µM (inactive) | 41.6 µM (inactive) | 24.4 µM (inactive) | – |
| O=[N+]([O-])c1cccc(-c2nc(-c3ccccc3)c(-c3ccccc3)[nH]2)c1 | > 100 µM (inactive) | > 100 µM (inactive) | > 100 µM (inactive) | > 100 µM (inactive) | > 100 µM (inactive) | > 100 µM (inactive) | > 100 µM (inactive) | – | > 100 µM (inactive) | > 100 µM (inactive) | > 100 µM (inactive) | > 100 µM (inactive) | > 100 µM (inactive) | > 100 µM (inactive) | > 100 µM (inactive) | > 100 µM (inactive) | > 100 µM (inactive) | > 100 µM (inactive) | > 100 µM (inactive) | > 100 µM (inactive) |
| CC[C@H](CO)Nc1nc(NCc2ccccc2)c2ncn(C(C)C)c2n1 [SELICICLIB] | 13.6 µM (inactive) | 48.1 µM (inactive) | 21.7 µM (inactive) | 8.07 µM (inactive) | – | 13.5 µM (inactive) | 13.3 µM (inactive) | 19.3 | 27.9 µM (inactive) | 5.4 µM (inactive) | – | 6.17 µM (inactive) | – | 53.8 µM (inactive) | 23.3 µM (inactive) | 64.1 µM (inactive) | 32.2 µM (inactive) | – | 13.2 µM (inactive) | 27.9 µM (inactive) |
| CC(=O)N1C(=O)c2cc3ccccc3cc21 | > 100 µM (inactive) | 24.7 µM (inactive) | > 100 µM (inactive) | > 100 µM (inactive) | > 100 µM (inactive) | 31.3 µM (inactive) | > 100 µM (inactive) | 90.2 | > 100 µM (inactive) | > 100 µM (inactive) | > 100 µM (inactive) | – | > 100 µM (inactive) | > 100 µM (inactive) | > 100 µM (inactive) | > 100 µM (inactive) | > 100 µM (inactive) | > 100 µM (inactive) | 95.5 µM (inactive) | > 100 µM (inactive) |
| COc1ccc(-c2c3c(n(C4OC(CO)C(O)C(O)C4O)c(=S)c2C#N)CCCC3)cc1 (configuration not stated) | > 100 µM (inactive) | > 100 µM (inactive) | 72.9 µM (inactive) | > 100 µM (inactive) | > 100 µM (inactive) | > 100 µM (inactive) | > 100 µM (inactive) | > 100 | > 100 µM (inactive) | > 100 µM (inactive) | – | > 100 µM (inactive) | > 100 µM (inactive) | – | > 100 µM (inactive) | > 100 µM (inactive) | > 100 µM (inactive) | – | > 100 µM (inactive) | > 100 µM (inactive) |
| Cc1ccc(S(=O)(=O)N(CCNC(=O)c2cccc(O)c2O)c2cc3c4c(c2)Oc2cccc5c2C4(C)c2c(cccc2O3)O5)cc1 | 20.9 µM (inactive) | 58.6 µM (inactive) | – | 20.8 µM (inactive) | > 100 µM (inactive) | 29.9 µM (inactive) | 5.85 µM (inactive) | > 100 | > 100 µM (inactive) | 14.6 µM (inactive) | > 100 µM (inactive) | > 100 µM (inactive) | > 100 µM (inactive) | 8.83 µM (inactive) | > 100 µM (inactive) | > 100 µM (inactive) | > 100 µM (inactive) | 53.6 µM (inactive) | > 100 µM (inactive) | > 100 µM (inactive) |
| COc1ccc(Cc2nc3cc(Cl)ccc3o2)cc1 | 35.4 µM (inactive) | – | 28.4 µM (inactive) | 60 µM (inactive) | 40.8 µM (inactive) | 27.9 µM (inactive) | 22.1 µM (inactive) | 26.9 | 31.2 µM (inactive) | 23.7 µM (inactive) | 42.2 µM (inactive) | 31 µM (inactive) | 54.5 µM (inactive) | 27.1 µM (inactive) | 33.3 µM (inactive) | 35.7 µM (inactive) | 20.8 µM (inactive) | 37.2 µM (inactive) | 29.2 µM (inactive) | 32.2 µM (inactive) |
